The kinase profiling compilation of Christmann-Franck et al. (2016)

Columns and labels:
Assay in all cases: KINOMEscan competition binding
Settings in all cases: compound 10.0 µM
MARK3 (human) = MARK3 (human) (UniProt P27448)
SRPK3 (human) = SRPK3 (human) (UniProt Q9UPE1)
NTRK2 (human) = NTRK2 (human) (UniProt Q16620)
[1] = system: EGFR (human), P00533 [L858R]
INSR (human) = INSR (human) (UniProt P06213)
PRKG1 (human) = PRKG1 (human) (UniProt Q13976)
PRKD2 (human) = PRKD2 (human) (UniProt Q9BZL6)
[2] = target: JAK1 JH1 catalytic (human) (UniProt P23458)
CDK9 (human) = CDK9 (human) (UniProt P50750)
FES (human) = FES (human) (UniProt P07332)
CDK19 (human) = CDK19 (human) (UniProt Q9BWU1)
FGFR2 (human) = FGFR2 (human) (UniProt P21802)
DCLK1 (human) = DCLK1 (human) (UniProt O15075)
RIOK2 (human) = RIOK2 (human) (UniProt Q9BVS4)
RPS6KA5 KD1 (human) = RPS6KA5 KD1 (human) (UniProt O75582)
MAPK14 (human) = MAPK14 (human) (UniProt Q16539)
SGK110 (human) = SGK110 (human) (UniProt P0C264)
PAK6 (human) = PAK6 (human) (UniProt Q9NQU5)
RIOK3 (human) = RIOK3 (human) (UniProt O14730)
ADCK3 (human) = ADCK3 (human) (UniProt Q8NI60)
MAP2K3 (human) = MAP2K3 (human) (UniProt P46734)
MAP2K6 (human) = MAP2K6 (human) (UniProt P52564)
EIF2AK2 (human) = EIF2AK2 (human) (UniProt P19525)
CDK18 (human) = CDK18 (human) (UniProt Q07002)
EPHA8 (human) = EPHA8 (human) (UniProt P29322)
SYK (human) = SYK (human) (UniProt P43405)
TEC (human) = TEC (human) (UniProt P42680)
TESK1 (human) = TESK1 (human) (UniProt Q15569)
PLK4 (human) = PLK4 (human) (UniProt O00444)
ULK2 (human) = ULK2 (human) (UniProt Q8IYT8)
MAPKAPK5 (human) = MAPKAPK5 (human) (UniProt Q8IW41)
STK16 (human) = STK16 (human) (UniProt O75716)
EPHA1 (human) = EPHA1 (human) (UniProt P21709)
CDKL3 (human) = CDKL3 (human) (UniProt Q8IVW4)
[3] = system: MET (human), P08581 [M1250T]
PI4KB (human) = PI4KB (human) (UniProt Q9UBF8)
NIM1 (human) = NIM1 (human) (UniProt Q8IY84)
PRPF4B (human) = PRPF4B (human) (UniProt Q13523)

Chain of MAPKAPK5 (human) (Q8IW41 whole entry, looked up): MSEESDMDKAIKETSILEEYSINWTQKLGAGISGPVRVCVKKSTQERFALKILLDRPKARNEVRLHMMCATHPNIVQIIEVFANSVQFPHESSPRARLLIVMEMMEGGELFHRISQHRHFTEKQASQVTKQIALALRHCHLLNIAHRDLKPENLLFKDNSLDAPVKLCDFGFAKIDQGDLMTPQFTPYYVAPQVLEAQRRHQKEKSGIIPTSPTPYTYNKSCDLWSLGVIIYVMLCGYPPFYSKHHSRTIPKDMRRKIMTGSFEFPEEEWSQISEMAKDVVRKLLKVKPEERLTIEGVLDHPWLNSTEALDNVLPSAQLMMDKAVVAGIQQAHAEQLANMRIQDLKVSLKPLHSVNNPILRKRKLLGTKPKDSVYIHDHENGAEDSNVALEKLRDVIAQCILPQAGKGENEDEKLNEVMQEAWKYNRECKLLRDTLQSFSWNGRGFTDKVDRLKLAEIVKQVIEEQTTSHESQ
Chain of DCLK1 (human) (O15075 whole entry, looked up): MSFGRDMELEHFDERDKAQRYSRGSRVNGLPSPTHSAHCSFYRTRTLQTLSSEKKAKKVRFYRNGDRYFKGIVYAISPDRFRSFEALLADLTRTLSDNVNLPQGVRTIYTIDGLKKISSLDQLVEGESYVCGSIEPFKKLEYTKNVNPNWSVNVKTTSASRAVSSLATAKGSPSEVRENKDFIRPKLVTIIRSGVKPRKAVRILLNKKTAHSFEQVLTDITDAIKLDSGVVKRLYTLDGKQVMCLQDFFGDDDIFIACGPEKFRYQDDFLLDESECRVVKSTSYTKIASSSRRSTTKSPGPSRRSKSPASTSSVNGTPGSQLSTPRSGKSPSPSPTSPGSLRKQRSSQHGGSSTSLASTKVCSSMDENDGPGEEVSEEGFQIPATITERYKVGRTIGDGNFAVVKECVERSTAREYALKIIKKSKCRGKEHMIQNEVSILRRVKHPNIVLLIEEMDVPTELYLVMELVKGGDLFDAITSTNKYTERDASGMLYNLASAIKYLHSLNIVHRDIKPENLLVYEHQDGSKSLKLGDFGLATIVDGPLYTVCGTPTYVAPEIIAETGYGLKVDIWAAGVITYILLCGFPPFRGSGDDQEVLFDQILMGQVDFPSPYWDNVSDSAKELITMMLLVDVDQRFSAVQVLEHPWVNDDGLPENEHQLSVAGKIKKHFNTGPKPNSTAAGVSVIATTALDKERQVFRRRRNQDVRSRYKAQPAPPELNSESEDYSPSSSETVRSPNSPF
Chain of CDK18 (human) (Q07002 whole entry, looked up): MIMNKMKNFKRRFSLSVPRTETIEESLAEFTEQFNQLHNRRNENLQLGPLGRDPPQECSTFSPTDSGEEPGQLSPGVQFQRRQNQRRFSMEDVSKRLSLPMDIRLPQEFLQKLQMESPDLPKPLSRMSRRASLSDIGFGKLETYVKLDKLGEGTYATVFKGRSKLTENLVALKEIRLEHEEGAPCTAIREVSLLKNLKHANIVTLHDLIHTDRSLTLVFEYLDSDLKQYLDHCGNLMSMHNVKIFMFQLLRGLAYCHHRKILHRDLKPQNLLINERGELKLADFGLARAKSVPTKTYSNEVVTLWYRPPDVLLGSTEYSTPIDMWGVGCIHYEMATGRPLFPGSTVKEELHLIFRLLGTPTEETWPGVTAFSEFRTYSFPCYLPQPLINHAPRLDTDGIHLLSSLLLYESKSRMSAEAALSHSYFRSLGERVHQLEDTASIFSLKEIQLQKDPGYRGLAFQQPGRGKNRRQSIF
Chain of RIOK2 (human) (Q9BVS4 whole entry, looked up): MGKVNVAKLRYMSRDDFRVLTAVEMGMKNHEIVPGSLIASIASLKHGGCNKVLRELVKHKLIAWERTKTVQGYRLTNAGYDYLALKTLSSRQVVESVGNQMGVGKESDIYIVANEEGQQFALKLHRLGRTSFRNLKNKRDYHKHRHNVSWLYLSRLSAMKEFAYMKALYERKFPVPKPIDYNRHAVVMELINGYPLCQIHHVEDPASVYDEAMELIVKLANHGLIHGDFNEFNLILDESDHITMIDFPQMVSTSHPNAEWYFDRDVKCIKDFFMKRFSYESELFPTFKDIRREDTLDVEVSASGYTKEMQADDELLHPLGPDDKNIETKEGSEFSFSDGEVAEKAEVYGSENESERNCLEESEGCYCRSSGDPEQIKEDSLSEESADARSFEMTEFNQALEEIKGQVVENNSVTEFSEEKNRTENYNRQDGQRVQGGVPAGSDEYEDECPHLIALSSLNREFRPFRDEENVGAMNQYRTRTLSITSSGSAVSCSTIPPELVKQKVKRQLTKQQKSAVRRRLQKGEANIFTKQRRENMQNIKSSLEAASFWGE
Chain of RPS6KA5 KD1 (human) (O75582 whole entry, looked up): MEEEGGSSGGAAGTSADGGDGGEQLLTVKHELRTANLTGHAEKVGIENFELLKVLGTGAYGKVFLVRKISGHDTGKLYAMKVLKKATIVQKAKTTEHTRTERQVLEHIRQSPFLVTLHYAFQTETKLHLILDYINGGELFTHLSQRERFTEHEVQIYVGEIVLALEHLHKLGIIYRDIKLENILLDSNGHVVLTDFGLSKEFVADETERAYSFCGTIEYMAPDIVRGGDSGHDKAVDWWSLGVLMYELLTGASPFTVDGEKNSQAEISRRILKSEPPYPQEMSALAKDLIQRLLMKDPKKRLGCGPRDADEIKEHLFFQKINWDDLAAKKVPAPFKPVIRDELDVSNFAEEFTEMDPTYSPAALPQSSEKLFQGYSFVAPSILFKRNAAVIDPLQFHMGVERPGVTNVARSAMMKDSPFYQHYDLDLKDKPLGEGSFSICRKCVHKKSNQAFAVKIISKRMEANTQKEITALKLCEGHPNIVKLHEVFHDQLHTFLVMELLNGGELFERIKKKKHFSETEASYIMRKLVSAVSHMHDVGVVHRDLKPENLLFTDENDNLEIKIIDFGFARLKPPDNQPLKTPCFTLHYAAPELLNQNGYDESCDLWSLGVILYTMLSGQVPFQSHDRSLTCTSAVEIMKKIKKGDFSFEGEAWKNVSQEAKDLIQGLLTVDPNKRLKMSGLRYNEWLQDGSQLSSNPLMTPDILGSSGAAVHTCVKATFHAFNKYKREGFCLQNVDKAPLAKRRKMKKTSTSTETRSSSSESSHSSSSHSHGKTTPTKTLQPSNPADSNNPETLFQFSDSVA
Chain of CDK9 (human) (P50750 whole entry, looked up): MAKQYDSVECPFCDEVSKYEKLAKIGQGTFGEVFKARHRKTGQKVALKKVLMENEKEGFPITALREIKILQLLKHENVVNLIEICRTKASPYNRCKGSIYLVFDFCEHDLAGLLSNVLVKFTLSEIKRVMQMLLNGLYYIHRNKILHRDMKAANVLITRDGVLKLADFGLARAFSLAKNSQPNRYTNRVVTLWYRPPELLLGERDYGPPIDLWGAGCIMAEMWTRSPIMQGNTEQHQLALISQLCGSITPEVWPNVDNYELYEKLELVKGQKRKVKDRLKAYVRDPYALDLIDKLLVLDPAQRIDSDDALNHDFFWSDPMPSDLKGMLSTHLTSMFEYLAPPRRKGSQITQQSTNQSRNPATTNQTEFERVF
Chain of EPHA8 (human) (P29322 whole entry, looked up): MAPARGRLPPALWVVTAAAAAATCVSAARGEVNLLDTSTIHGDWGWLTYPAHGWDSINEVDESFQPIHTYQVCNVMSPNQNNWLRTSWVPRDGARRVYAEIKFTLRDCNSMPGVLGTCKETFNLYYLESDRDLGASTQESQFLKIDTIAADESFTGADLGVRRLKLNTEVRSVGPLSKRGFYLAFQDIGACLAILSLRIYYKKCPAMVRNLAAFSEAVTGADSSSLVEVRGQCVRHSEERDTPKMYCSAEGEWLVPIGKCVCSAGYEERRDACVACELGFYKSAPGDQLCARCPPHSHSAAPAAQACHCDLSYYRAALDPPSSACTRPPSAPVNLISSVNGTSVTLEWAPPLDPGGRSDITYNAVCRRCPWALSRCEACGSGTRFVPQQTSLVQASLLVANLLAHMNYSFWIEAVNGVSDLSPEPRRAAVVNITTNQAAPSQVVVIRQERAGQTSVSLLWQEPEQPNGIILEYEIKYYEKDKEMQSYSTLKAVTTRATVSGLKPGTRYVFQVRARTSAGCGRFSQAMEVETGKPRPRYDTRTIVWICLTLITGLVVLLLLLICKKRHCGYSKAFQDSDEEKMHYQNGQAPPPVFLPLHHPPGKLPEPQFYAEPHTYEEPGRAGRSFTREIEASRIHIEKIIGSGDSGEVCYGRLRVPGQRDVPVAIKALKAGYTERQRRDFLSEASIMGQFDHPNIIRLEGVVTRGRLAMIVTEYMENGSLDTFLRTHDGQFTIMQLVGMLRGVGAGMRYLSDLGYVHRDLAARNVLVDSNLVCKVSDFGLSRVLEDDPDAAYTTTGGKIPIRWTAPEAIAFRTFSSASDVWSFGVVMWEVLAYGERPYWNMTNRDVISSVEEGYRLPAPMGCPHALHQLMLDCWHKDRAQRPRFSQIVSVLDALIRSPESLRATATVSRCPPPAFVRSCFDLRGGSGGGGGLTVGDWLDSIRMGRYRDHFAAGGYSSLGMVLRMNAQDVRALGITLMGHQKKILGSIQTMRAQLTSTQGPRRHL
Chain of STK16 (human) (O75716 whole entry, looked up): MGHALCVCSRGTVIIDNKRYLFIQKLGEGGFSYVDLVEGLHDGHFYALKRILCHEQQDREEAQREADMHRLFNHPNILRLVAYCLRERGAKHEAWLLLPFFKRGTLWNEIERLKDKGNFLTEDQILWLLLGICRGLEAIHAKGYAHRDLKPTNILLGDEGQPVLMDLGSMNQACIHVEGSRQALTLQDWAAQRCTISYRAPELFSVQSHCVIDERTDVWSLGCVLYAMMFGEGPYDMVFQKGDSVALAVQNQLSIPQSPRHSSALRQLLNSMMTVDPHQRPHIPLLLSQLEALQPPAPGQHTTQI

`COc1cc(C)c(Sc2cnc(NC(=O)c3ccc(CNC(C)C(C)C)cc3)s2)cc1C(=O)N1CCN(C(C)=O)CC1` (configuration not stated) was tested, and the kinase still bound, per cent of control (MARK3 (human)) was 100%, the kinase still bound, per cent of control (SRPK3 (human)) was 100% and the kinase still bound, per cent of control (NTRK2 (human)) was 23%. The kinase still bound, per cent of control [1] was 100%, the kinase still bound, per cent of control (INSR (human)) was 5.1% and the kinase still bound, per cent of control (PRKG1 (human)) was 100%. For the same molecule, the kinase still bound, per cent of control (PRKD2 (human)) was 100%, the kinase still bound, per cent of control [2] was 100% and the kinase still bound, per cent of control (CDK9 (human)) was 100%. For the same molecule, the kinase still bound, per cent of control (FES (human)) was 100%, the kinase still bound, per cent of control (CDK19 (human)) was 100% and the kinase still bound, per cent of control (FGFR2 (human)) was 100%. The kinase still bound, per cent of control (DCLK1 (human)) was 31%, the kinase still bound, per cent of control (RIOK2 (human)) was 100% and the kinase still bound, per cent of control (RPS6KA5 KD1 (human)) was 100%. For the same molecule, the kinase still bound, per cent of control (MAPK14 (human)) was 100%, the kinase still bound, per cent of control (SGK110 (human)) was 100% and the kinase still bound, per cent of control (PAK6 (human)) was 100%. It also gave a kinase still bound, per cent of control (RIOK3 (human)) of 100%, a kinase still bound, per cent of control (ADCK3 (human)) of 100% and a kinase still bound, per cent of control (MAP2K3 (human)) of 100%. The kinase still bound, per cent of control (MAP2K6 (human)) was 100%, the kinase still bound, per cent of control (EIF2AK2 (human)) was 100% and the kinase still bound, per cent of control (CDK18 (human)) was 100%. The kinase still bound, per cent of control (EPHA8 (human)) was 100%, the kinase still bound, per cent of control (SYK (human)) was 100% and the kinase still bound, per cent of control (TEC (human)) was 25%. The kinase still bound, per cent of control (TESK1 (human)) was 100%, the kinase still bound, per cent of control (PLK4 (human)) was 100% and the kinase still bound, per cent of control (ULK2 (human)) was 24%. It also gave a kinase still bound, per cent of control (MAPKAPK5 (human)) of 100%, a kinase still bound, per cent of control (STK16 (human)) of 100% and a kinase still bound, per cent of control (EPHA1 (human)) of 100%.
Work on `COc1ccc(N(C(=O)Oc2cc(C(=O)Nc3cccc(C(F)(F)F)c3)ccc2C)c2ccnc(Nc3ccc(N4CCN(C)CC4)cc3)n2)c(OC)c1` yielded a kinase still bound, per cent of control (MARK3 (human)) of 100%, a kinase still bound, per cent of control (NTRK2 (human)) of 24% and a kinase still bound, per cent of control [1] of 2.4%. The kinase still bound, per cent of control (INSR (human)) was 100%, the kinase still bound, per cent of control (PRKG1 (human)) was 100% and the kinase still bound, per cent of control (PRKD2 (human)) was 100%. For the same molecule, the kinase still bound, per cent of control (CDK9 (human)) was 100%, the kinase still bound, per cent of control (FES (human)) was 0.85% and the kinase still bound, per cent of control (CDK19 (human)) was 100%. For the same molecule, the kinase still bound, per cent of control (FGFR2 (human)) was 3.4%, the kinase still bound, per cent of control (DCLK1 (human)) was 100% and the kinase still bound, per cent of control (RPS6KA5 KD1 (human)) was 100%. For the same molecule, the kinase still bound, per cent of control (MAPK14 (human)) was 14%, the kinase still bound, per cent of control (PAK6 (human)) was 100% and the kinase still bound, per cent of control (RIOK3 (human)) was 100%. It also gave a kinase still bound, per cent of control (ADCK3 (human)) of 100%, a kinase still bound, per cent of control (MAP2K3 (human)) of 100% and a kinase still bound, per cent of control (MAP2K6 (human)) of 100%. For the same molecule, the kinase still bound, per cent of control (EIF2AK2 (human)) was 100%, the kinase still bound, per cent of control (CDK18 (human)) was 100% and the kinase still bound, per cent of control (EPHA8 (human)) was 0%. For the same molecule, the kinase still bound, per cent of control (SYK (human)) was 4%, the kinase still bound, per cent of control (TEC (human)) was 0.2% and the kinase still bound, per cent of control (TESK1 (human)) was 3.8%. The kinase still bound, per cent of control (PLK4 (human)) was 100%, the kinase still bound, per cent of control (MAPKAPK5 (human)) was 100% and the kinase still bound, per cent of control (STK16 (human)) was 100%. The kinase still bound, per cent of control (EPHA1 (human)) was 0.75%.
With `COc1cc(N2CCC(C(N)=O)CC2)ccc1Nc1nc(N)c(Cl)c(Nc2ccccc2S(=O)(=O)C(C)C)n1` the kinase still bound, per cent of control (MARK3 (human)) was 100%, the kinase still bound, per cent of control (SRPK3 (human)) was 100% and the kinase still bound, per cent of control (NTRK2 (human)) was 100%. The kinase still bound, per cent of control [1] was 0.3%, the kinase still bound, per cent of control (INSR (human)) was 0.05% and the kinase still bound, per cent of control (PRKG1 (human)) was 100%. For the same molecule, the kinase still bound, per cent of control (PRKD2 (human)) was 100%, the kinase still bound, per cent of control [2] was 100% and the kinase still bound, per cent of control (CDK9 (human)) was 100%. For the same molecule, the kinase still bound, per cent of control (FES (human)) was 2.3%, the kinase still bound, per cent of control (CDK19 (human)) was 100% and the kinase still bound, per cent of control (FGFR2 (human)) was 100%. For the same molecule, the kinase still bound, per cent of control (DCLK1 (human)) was 18%, the kinase still bound, per cent of control (RIOK2 (human)) was 100% and the kinase still bound, per cent of control (RPS6KA5 KD1 (human)) was 100%. For the same molecule, the kinase still bound, per cent of control (MAPK14 (human)) was 100%, the kinase still bound, per cent of control (SGK110 (human)) was 100% and the kinase still bound, per cent of control (PAK6 (human)) was 100%. It also gave a kinase still bound, per cent of control (RIOK3 (human)) of 100%, a kinase still bound, per cent of control (ADCK3 (human)) of 0.1% and a kinase still bound, per cent of control (MAP2K3 (human)) of 23%. For the same molecule, the kinase still bound, per cent of control (MAP2K6 (human)) was 100%, the kinase still bound, per cent of control (EIF2AK2 (human)) was 100% and the kinase still bound, per cent of control (CDK18 (human)) was 100%. For the same molecule, the kinase still bound, per cent of control (EPHA8 (human)) was 100%, the kinase still bound, per cent of control (SYK (human)) was 100% and the kinase still bound, per cent of control (TEC (human)) was 100%. For the same molecule, the kinase still bound, per cent of control (TESK1 (human)) was 100%, the kinase still bound, per cent of control (PLK4 (human)) was 2.8% and the kinase still bound, per cent of control (ULK2 (human)) was 100%. It also gave a kinase still bound, per cent of control (MAPKAPK5 (human)) of 100%, a kinase still bound, per cent of control (STK16 (human)) of 100% and a kinase still bound, per cent of control (EPHA1 (human)) of 15%.
With `Cc1cn(-c2cc(C(=O)Nc3ccc(C)c(NC(=O)c4ccno4)c3)cc(C(F)(F)F)c2)cn1` the kinase still bound, per cent of control (MARK3 (human)) was 100%, the kinase still bound, per cent of control (SRPK3 (human)) was 100% and the kinase still bound, per cent of control (NTRK2 (human)) was 100%. For the same molecule, the kinase still bound, per cent of control [1] was 100%, the kinase still bound, per cent of control (INSR (human)) was 100% and the kinase still bound, per cent of control (PRKG1 (human)) was 100%. For the same molecule, the kinase still bound, per cent of control (PRKD2 (human)) was 100%, the kinase still bound, per cent of control (CDKL3 (human)) was 100% and the kinase still bound, per cent of control [2] was 100%. The kinase still bound, per cent of control (CDK9 (human)) was 100%, the kinase still bound, per cent of control (FES (human)) was 100% and the kinase still bound, per cent of control (CDK19 (human)) was 100%. It also gave a kinase still bound, per cent of control (FGFR2 (human)) of 100%, a kinase still bound, per cent of control (DCLK1 (human)) of 100% and a kinase still bound, per cent of control (RIOK2 (human)) of 100%. The kinase still bound, per cent of control (RPS6KA5 KD1 (human)) was 100%, the kinase still bound, per cent of control (MAPK14 (human)) was 0.3% and the kinase still bound, per cent of control [3] was 100%. For the same molecule, the kinase still bound, per cent of control (PI4KB (human)) was 100%, the kinase still bound, per cent of control (SGK110 (human)) was 100% and the kinase still bound, per cent of control (PAK6 (human)) was 100%. The kinase still bound, per cent of control (RIOK3 (human)) was 100%, the kinase still bound, per cent of control (ADCK3 (human)) was 100% and the kinase still bound, per cent of control (MAP2K3 (human)) was 100%. The kinase still bound, per cent of control (NIM1 (human)) was 100%, the kinase still bound, per cent of control (MAP2K6 (human)) was 100% and the kinase still bound, per cent of control (EIF2AK2 (human)) was 100%. The kinase still bound, per cent of control (CDK18 (human)) was 100%, the kinase still bound, per cent of control (EPHA8 (human)) was 0.3% and the kinase still bound, per cent of control (SYK (human)) was 100%. It also gave a kinase still bound, per cent of control (TEC (human)) of 100%, a kinase still bound, per cent of control (PRPF4B (human)) of 100% and a kinase still bound, per cent of control (TESK1 (human)) of 100%. The kinase still bound, per cent of control (PLK4 (human)) was 100%, the kinase still bound, per cent of control (ULK2 (human)) was 100% and the kinase still bound, per cent of control (MAPKAPK5 (human)) was 100%. The kinase still bound, per cent of control (STK16 (human)) was 100% and the kinase still bound, per cent of control (EPHA1 (human)) was 100%.
